Measured values as given in patent publication US9732075B2, “Benzimidazole-proline derivatives” (IDORSIA PHARMACEUTICALS LTD, priority 2012, dated 2017).

Assays:
human orexin-1 receptor = human orexin-1 receptor (Homo sapiens (Human), UniProt O43613); assay: In vitro assay: intracellular calcium measurements (FLIPR), antagonistic activity; type: cell-based; conditions: CHO cells expressing human orexin-1 receptor, orexin-A agonist, geometric mean, read-out: IC50 Ox1
Procedure: (§1) In Vitro Assay: Intracellular Calcium Measurements:
(§2) Chinese hamster ovary (CHO) cells expressing the human orexin-1 receptor and the human orexin-2 receptor, respectively, are grown in culture medium (Ham F-12 with L-Glutamine) containing 300 μg/ml G418, 100 U/ml penicillin, 100 μg/ml streptomycin and 10% heat inactivated fetal calf serum (FCS). The cells are seeded at 20,000 cells/well into 384-well black clear bottom sterile plates (Greiner). The seeded plates are incubated overnight at 37° C. in 5% CO2.
(§3) Human orexin-A as an agonist is prepared as 1 mM stock solution in MeOH: water (1:1), diluted in HBSS containing 0.1% bovine serum albumin (BSA), NaHCO3: 0.375 g/l and 20 mM HEPES for use in the assay at a final concentration of 3 nM.
(§4) Antagonists are prepared as 10 mM stock solution in DMSO, then diluted in 384-well plates using DMSO followed by a transfer of the dilutions into in HBSS containing 0.1% bovine serum albumin (BSA), NaHCO3: 0.375 g/l and 20 mM HEPES. On the day of the assay, 50 μl of staining buffer (HBSS containing 1% FCS, 20 mM HEPES, NaHCO3: 0.375 g/l, 5 mM probenecid (Sigma) and […] of the fluorescent calcium indicator fluo-4 AM (1 mM stock solution in DMSO, containing 10% pluronic) is added to each well. The 384-well cell-plates are incubated for 50 min at 37° C. in 5% CO2 followed by equilibration at RT for 30 min before measurement.
(§5) Within the Fluorescent Imaging Plate Reader (FLIPR Tetra, Molecular Devices), antagonists are added to the plate in a volume of 10 μl/well, incubated for 120 min and finally 10 μl/well of agonist is added. Fluorescence is measured for each well at 1 second intervals, and the height of each fluorescence peak is compared to the height of the fluorescence peak induced by an approximate EC70 (for example 5 nM) of orexin-A with vehicle in place of antagonist. The IC50 value (the concentration of compound needed to inhibit 50% of the agonistic response) is determined and may be normalized using the obtained IC50 value of a on-plate reference compound. Optimized conditions are achieved by adjustment of pipetting speed and cell splitting regime. The calculated IC50 values may fluctuate depending on the daily cellular assay performance. Fluctuations of this kind are known to those skilled in the art. Average IC50 values from several measurements are given as geometric mean values.

human orexin-2 receptor = human orexin-2 receptor (Homo sapiens (Human), UniProt O43614); assay: as above; type: cell-based; conditions: CHO cells expressing human orexin-2 receptor, orexin-A agonist, geometric mean, read-out: IC50 Ox2
human orexin-2 receptor, sequence (O43614 whole entry): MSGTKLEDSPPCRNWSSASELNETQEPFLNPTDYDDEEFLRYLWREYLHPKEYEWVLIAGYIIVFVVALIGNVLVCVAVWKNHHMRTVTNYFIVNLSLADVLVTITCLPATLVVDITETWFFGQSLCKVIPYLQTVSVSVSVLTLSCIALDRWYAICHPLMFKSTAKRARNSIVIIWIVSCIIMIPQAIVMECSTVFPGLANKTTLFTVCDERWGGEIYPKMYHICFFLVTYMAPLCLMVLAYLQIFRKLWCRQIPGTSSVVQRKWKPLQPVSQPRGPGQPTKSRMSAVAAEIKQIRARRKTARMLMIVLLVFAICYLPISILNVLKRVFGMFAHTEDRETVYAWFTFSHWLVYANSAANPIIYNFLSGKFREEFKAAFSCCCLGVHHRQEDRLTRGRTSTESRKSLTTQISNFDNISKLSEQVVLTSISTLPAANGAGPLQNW
Procedure: as §1, §2, §3, §4, §5

human orexin-1 receptor, sequence (O43613 whole entry): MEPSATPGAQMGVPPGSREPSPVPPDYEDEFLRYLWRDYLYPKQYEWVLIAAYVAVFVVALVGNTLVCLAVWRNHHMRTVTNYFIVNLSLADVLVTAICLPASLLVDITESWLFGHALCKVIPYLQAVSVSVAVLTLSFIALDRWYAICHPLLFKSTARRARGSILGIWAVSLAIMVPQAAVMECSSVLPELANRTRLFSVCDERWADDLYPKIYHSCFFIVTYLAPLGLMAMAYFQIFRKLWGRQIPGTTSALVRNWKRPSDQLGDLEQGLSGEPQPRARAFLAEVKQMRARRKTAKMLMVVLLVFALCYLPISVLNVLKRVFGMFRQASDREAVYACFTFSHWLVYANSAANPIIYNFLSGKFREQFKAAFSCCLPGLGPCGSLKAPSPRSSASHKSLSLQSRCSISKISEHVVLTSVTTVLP

Compound | IC50 (human orexin-1 receptor) | IC50 (human orexin-2 receptor)
Cc1c(Cl)ccc2c1nc([C@]1(C)CCCN1C(=O)c1cc(Cl)ccc1-n1nccn1)n2C [Ex. 7.22] | 0.001 µM | 0.004 µM
Cc1c(Cl)ccc2[nH]c([C@]3(C)CCCN3C(=O)c3ccccc3-n3nccn3)nc12 [Ex. 5.46] | 0.006 µM | 0.014 µM
Cc1ccc(-n2nccn2)c(C(=O)N2C[C@H](F)C[C@H]2c2nc3c(C)c(Cl)ccc3[nH]2)c1 [Ex. 2.5] | 0.006 µM | 0.012 µM
CSc1ccc2nc([C@@H]3CCCN3C(=O)c3nc(C)sc3-c3cccc(C(F)(F)F)c3)[nH]c2c1 [Ex. 1.38] | 0.36 µM | 0.11 µM
Cc1ccc(C(=O)N2CCC[C@@]2(C)c2nc3cc(C(F)(F)F)ccc3[nH]2)c(-n2nccn2)c1 [Ex. 5.171] | 0.012 µM | 0.058 µM
COc1cc2nc([C@@H]3[C@@H](C)CCN3C(=O)c3cc(C(F)(F)F)ccc3-n3nccn3)[nH]c2cc1OC [Ex. 4.47] | 0.176 µM | 0.281 µM
C[C@@]1(c2nc3cc(Cl)c(C(F)(F)F)cc3[nH]2)CCCN1C(=O)c1nc(-c2cccc(F)c2)sc1-c1ccc(F)cc1 [Ex. 5.290] | 0.033 µM | 2.14 µM
C=C1C[C@@H](c2nc3ccc(OC)cc3[nH]2)N(C(=O)c2cc(OC)ccc2-n2nccn2)C1 [Ex. 6.140] | 0.667 µM | 0.01 µM
Cc1nc(C(=O)N2CC[C@H](C)[C@H]2c2nc3cc(Cl)c(C)cc3[nH]2)c(-c2cccc(Cl)c2)s1 [Ex. 4.15] | 0.002 µM | 0.67 µM
COc1ccc(-n2nccn2)c(C(=O)N2CC[C@H](C)[C@H]2c2nc3cc(OC)c(OC)cc3[nH]2)c1 [Ex. 4.43] | 0.039 µM | 0.097 µM
CSc1ccc2nc([C@@H]3CCCN3C(=O)c3nc(C)sc3-c3cccc(Cl)c3)[nH]c2c1 [Ex. 1.43] | 0.097 µM | 0.058 µM
Cc1nc(C(=O)N2CCCC2c2nc3c(Cl)cc(C(F)(F)F)cc3[nH]2)c(-c2cccc(Cl)c2)s1 (stereo not drawn) [Ex. 1.100] | 0.027 µM | 0.104 µM
CO[C@H]1CN(C(=O)c2ccccc2-n2nccn2)C(C)(c2nc3c(C)c(Cl)ccc3[nH]2)C1 (stereo partly drawn) [Ex. 3.45] | 0.016 µM | 0.019 µM
CCn1c([C@]2(C)CCCN2C(=O)c2nc(C)sc2-c2cccc(Cl)c2)nc2c(C)cccc21 [Ex. 7.6] | 0.005 µM | 0.006 µM
Cc1cc2nc([C@]3(C)CCCN3C(=O)c3cc(F)ccc3-n3nccn3)[nH]c2cc1C [Ex. 5.60] | 0.156 µM | 0.054 µM
C=C1C[C@@H](c2nc3cc(Cl)c(C(F)(F)F)cc3[nH]2)N(C(=O)c2c(-n3nccn3)ccc(OC)c2F)C1 [Ex. 6.179] | 0.006 µM | 0.007 µM
COc1cccc(-c2nc(C(=O)N3CCC[C@@]3(C)c3nc4cc(Cl)c(C(F)(F)F)cc4[nH]3)c(-c3ccc(F)cc3)s2)c1 [Ex. 5.292] | 0.034 µM | 0.671 µM
COc1ccc(-c2nccnc2C(=O)N2CCC[C@H]2c2nc3cccc(SC)c3[nH]2)cc1 [Ex. 1.72] | 0.112 µM | 0.18 µM
C=C1C[C@@H](c2nc3c(C)cc(C)cc3[nH]2)N(C(=O)c2cc(C)ccc2-n2nccn2)C1 [Ex. 6.62] | 0.044 µM | 0.004 µM
Cc1cccc(-c2ccccc2C(=O)N2CCC[C@@]2(C)c2nc3cc(C)c(C)cc3[nH]2)c1 [Ex. 5.106] | 0.025 µM | 0.037 µM
C[C@@]1(c2nc3cc(C(F)(F)F)c(Cl)cc3[nH]2)CCCN1C(=O)c1cc(F)ccc1-n1nccn1 [Ex. 5.136] | 0.006 µM | 0.035 µM
C=C1C[C@@H](c2nc3ccc(Cl)c(C)c3[nH]2)N(C(=O)c2nc(C)sc2-c2cccc(OC)c2)C1 [Ex. 6.121] | 0.001 µM | 0.0005 µM
C=C1CC(c2nc3cccc(SC)c3[nH]2)N(C(=O)c2cc(C)sc2-c2ccc(C)c(C)c2)C1 (racemic) [Ex. 6.72] | 0.004 µM | 0.006 µM
Cc1nc(C(=O)N2CCCC2c2nc3c(C)c(C)ccc3[nH]2)c(-c2cccc(Cl)c2)s1 (stereo not drawn) [Ex. 1.115] | 0.037 µM | 0.019 µM

Compound | IC50 (human orexin-1 receptor) | IC50 (human orexin-2 receptor)
Cc1ccc(-n2nccn2)c(C(=O)N2CCC[C@@]2(C)c2nc3cc(C(F)(F)F)c(Cl)cc3[nH]2)c1F [Ex. 5.134] | 0.008 µM | 0.02 µM
Cc1ccc(C(=O)N2CCC[C@@]2(C)c2nc3cc(F)c(Br)cc3[nH]2)c(-n2nccn2)c1 [Ex. 5.130] | 0.024 µM | 0.058 µM
C[C@@]1(c2nc3cc(C(F)(F)F)ccc3[nH]2)CCCN1C(=O)c1c(F)cccc1-n1nccn1 [Ex. 5.164] | 0.104 µM | 0.419 µM
Cc1nc(C(=O)N2CC[C@H](C)[C@H]2c2nc3c(C(F)(F)F)cccc3[nH]2)c(-c2ccccc2Cl)s1 [Ex. 4.155] | 0.042 µM | 0.891 µM
COc1cccc2nc([C@@H]3CCCN3C(=O)c3cc(C)ccc3-n3nccn3)[nH]c12 [Ex. 1.4] | 0.241 µM | 0.03 µM
C=C1CN(C(=O)c2nc(C)sc2-c2cccc(Cl)c2)C(C)(c2nc3cc(OC)ccc3[nH]2)C1 (stereo not drawn) [Ex. 6.153] | 0.008 µM | 0.016 µM
Cc1nc(C(=O)N2CC[C@H](C)[C@H]2c2nc3c(CO)cccc3[nH]2)c(-c2cccc(Cl)c2)s1 [Ex. 4.17] | 0.014 µM | 1.67 µM
CSc1ccc2[nH]c([C@@H]3CCCN3C(=O)c3c(-n4nccn4)ccc(C)c3F)nc2c1 [Ex. 1.179] | 0.486 µM | 0.028 µM
CCOc1ccc(-c2ccc(C)cc2C(=O)N2CCC[C@@]2(C)c2nc3cc(C(F)(F)F)c(Cl)cc3[nH]2)cc1 [Ex. 5.162] | 0.252 µM | 0.25 µM
Cc1c(Cl)ccc2[nH]c([C@]3(C)CCCN3C(=O)c3cc(Cl)ccc3-n3nccn3)nc12 [Ex. 5.34] | 0.002 µM | 0.009 µM
CCn1c([C@]2(C)CCCN2C(=O)c2cc(C)ccc2-c2ccccc2F)nc2cc(C)c(C)cc21 [Ex. 7.45] | 0.031 µM | 0.06 µM
Cc1ccc(-c2ccc(C)cc2C(=O)N2CCC[C@@]2(C)c2nc3cc(C(F)(F)F)c(Cl)cc3[nH]2)cc1 [Ex. 5.154] | 0.059 µM | 0.061 µM
C=C1C[C@@H](c2nc3cc(Cl)c(C(F)(F)F)cc3[nH]2)N(C(=O)c2cc(C)ccc2-n2cccn2)C1 [Ex. 6.187] | 0.024 µM | 0.015 µM
Cc1nc(C(=O)N2CC[C@H](C)[C@H]2c2nc3cc(Cl)c(C)cc3[nH]2)c(-c2cc(F)cc(F)c2)s1 [Ex. 4.80] | 0.003 µM | 2.02 µM
C=C1CC(c2nc3cc(Cl)c(C)cc3[nH]2)N(C(=O)c2nc(C3CC3)sc2-c2cccc(C)c2)C1 (racemic) [Ex. 6.95] | 0.009 µM | 0.002 µM
C=C1C[C@@H](c2nc3ccc(OC)cc3[nH]2)N(C(=O)c2nc(C)ccc2-n2cccn2)C1 [Ex. 6.138] | > 6.97 µM | 0.034 µM
Cc1nc(C(=O)N2CC[C@H](C)[C@H]2c2nc3cc(F)c(F)cc3[nH]2)c(-c2cccc(Cl)c2)s1 [Ex. 4.12] | 0.023 µM | 4.87 µM
COc1cc2nc([C@]3(C)CCCN3C(=O)c3nc(C)sc3-c3ccc(F)cc3)[nH]c2cc1OC [Ex. 5.78] | 0.031 µM | 0.072 µM
C=C1C[C@@H](c2nc3cc(OC)ccc3[nH]2)N(C(=O)c2ccsc2-c2cccc(C)c2)C1 [Ex. 6.38] | 0.269 µM | 0.019 µM
COc1ccc(-n2nccn2)c(C(=O)N2CCC[C@@]2(C)c2nc3c(F)c(F)ccc3[nH]2)c1F [Ex. 5.203] | 0.195 µM | 1.38 µM
COc1ccc2nc([C@@H]3C[C@@H](OC)CN3C(=O)c3cc(Cl)ccc3-n3nccn3)[nH]c2c1 [Ex. 3.19] | 1.93 µM | 0.021 µM
C=C1C[C@@H](c2nc3ccc(OC)cc3[nH]2)N(C(=O)c2nc(C)sc2-c2ccc(F)cc2)C1 [Example 6.1, (S)-(5-(4-fluorophenyl)-2-methylthiazol-4-yl)(2-(6-methoxy-1H-benzo[d]imidazol-2-yl)-4-methylenepyrrolidin-1-yl)methanone] | 0.367 µM | 0.033 µM
COc1cc2nc([C@]3(C)CCCN3C(=O)c3cc(C)ccc3-n3nccn3)n(C)c2cc1OC [Ex. 7.9] | 0.028 µM | 0.028 µM
Cc1nc(C(=O)N2CCC[C@@]2(C)c2nc3cccc(C)c3[nH]2)c(-c2ccccc2)s1 [Example 5.1, (S)-(2-methyl-2-(7-methyl-1H-benzo[d]imidazol-2-yl)pyrrolidin-1-yl)(2-methyl-5-phenylthiazol-4-yl)methanone] | 0.026 µM | 0.013 µM
